The experiment deals with T1, human PAD4 (Homo sapiens, UniProt Q9UM07).
T1 construct: human PAD4 (NM_012387), A2-P663, was PCR amplified; His-SUMO (N, cleaved yes); made in house; host or cells: E. coli BL21(DE3)
Briefly: In vitro PAD4 BAEE biochemical assay. Particulars: BAEE substrate 3 mM, 5 nM PAD4, 2 mM calcium chloride; geometric mean of multiple experiments. In outline:
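PAD4 5 nM, CaCl2 2 mM, BAEE 3 mM final; 50 mM MOPS pH 7.6, 50 mM NaCl, 0.05% Tween-20, 2 mM DTT. Cpd + enzyme 30 min 25 °C; substrate 2 h 25 °C; EDTA stop; OPA detection 1 h. IC50 4-parameter fit.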

The source of these data is patent publication US11976083B2, “Inhibitors of peptidylarginine deiminases” (Gilead Sciences, Inc., priority 2020, dated 2024).

Molecules are shown by their SMILES.

T1 sequence (Q9UM07 2-663): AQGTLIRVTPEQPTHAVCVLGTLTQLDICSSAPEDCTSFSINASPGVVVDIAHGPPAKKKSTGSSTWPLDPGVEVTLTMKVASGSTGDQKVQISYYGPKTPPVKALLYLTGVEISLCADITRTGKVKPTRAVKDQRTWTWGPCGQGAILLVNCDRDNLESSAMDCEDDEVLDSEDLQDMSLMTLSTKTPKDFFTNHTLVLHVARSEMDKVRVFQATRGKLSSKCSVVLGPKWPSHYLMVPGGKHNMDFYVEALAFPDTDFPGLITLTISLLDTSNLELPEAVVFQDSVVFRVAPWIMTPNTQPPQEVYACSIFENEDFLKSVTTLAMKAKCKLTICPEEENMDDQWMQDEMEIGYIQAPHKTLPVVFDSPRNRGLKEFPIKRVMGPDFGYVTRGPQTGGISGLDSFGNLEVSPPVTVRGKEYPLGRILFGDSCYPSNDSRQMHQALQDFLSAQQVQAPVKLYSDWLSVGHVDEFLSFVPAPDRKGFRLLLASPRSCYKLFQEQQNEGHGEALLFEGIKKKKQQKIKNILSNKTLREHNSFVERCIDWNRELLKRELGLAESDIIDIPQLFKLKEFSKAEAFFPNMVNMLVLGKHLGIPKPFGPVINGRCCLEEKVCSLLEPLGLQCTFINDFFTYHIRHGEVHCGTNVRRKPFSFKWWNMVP

For orientation: IC50 means the concentration needed to halve the response being measured. On to `COc1cc(C(=O)N2CCC[C@@H](N)C2)cc2nc(-c3cc4ccc5nc4n3CCCCCc3cccc(C)c3C(=O)N[C@@H]5C)n(C)c12` [Example 361, (2~{R})-17-[5-[(3~{R})-3-aminopiperidine-1-carbonyl]-7-methoxy-1-methyl-benzimidazol-2-yl]-2,6-dimethyl-3,16,22-triazatetracyclo[14.5.2.0^{5,10}.0^{19,23}] tricosa-1(22),5(10),6,8,17,19(23),20-heptaen-4-one], for which the IC50 was found to be 74 nM. As to `C[C@H]1NC(=O)[C@@H]2C[C@H]2CCCCCn2c(-c3nc4cc(C(=O)N[C@H]5CNCC[C@@H]5F)c(F)cc4n3C3CC3)cc3ccc1nc32` [Example 182, 1-cyclopropyl-6-fluoro-~{N}-[(3~{S},4~{S})-4-fluoro-3-piperidyl]-2-[(2~{R},5~{R},7~{R})-2-methyl-4-oxo-3,13,19-triazatetracyclo[11.5.2.0^{5,7}.0^{16,20}]icosa-1(19),14,16(20),17-tetraen-14-yl]benzimidazole-5-carboxamide], the IC50 turned out to be 31 nM. With `COc1cc(C(=O)N2CC[C@@H](OC)[C@@H](N)C2)cc2nc(-c3cc4ccc5nc4n3CCCCCC[C@]3(CCCO3)C(=O)N[C@@H]5C)n(C)c12` [Example 686, (8~{S},11~{R})-17-[5-[(3~{S},4~{R})-3-amino-4-methoxy-piperidine-1-carbonyl]-7-methoxy-1-methyl-benzimidazol-2-yl]-11-methyl-spiro[1,10,19-triazatricyclo [10.5.2.0^{15,18}]nonadeca-12(19),13,15(18),16-tetraene-8,2′-tetrahydrofuran]-9-one], the IC50 turned out to be 44 nM. Consider `COc1cc(C(=O)N2CC[C@@H](OC)[C@@H](N)C2)cc2nc(-c3cc4ccc5nc4n3CC(F)(F)CCCOC3(CC3)C(=O)N[C@@H]5C)n(C)c12` [Example 589, (11~{R})-17-[5-[(3~{S},4~ {R})-3-amino-4-methoxy-piperidine-1-carbonyl]-7-methoxy-1-methyl-benzimidazol-2-yl]-3,3-difluoro-11-methyl-spiro[7-oxa-1,10,19-triazatricyclo[10.5.2.0^ {15,18}]nonadeca-12(19), 13,15(18),16-tetraene-8,1′-cyclopropane]-9-one], for which the IC50 came out at 145 nM. `C[C@H]1NC(=O)c2ccccc2CC[C@H]2C[C@@H]2Cn2c(-c3nc4cc(C(=O)N[C@H]5CNCC[C@@H]5F)c(F)cc4n3C)cc3ccc1nc32` [Example 351, 6-fluoro-~{N}-[(3~{S},4~{S})-4-fluoro-3-piperidyl]-1-methyl-2-[(3~{S},5~{S),16~{R})-16-methyl-14-oxo-1,15,24-triazapentacyclo[15.5.2.0^{3,5}.0^{8,13}.0^ {20,23}]tetracosa-8,10,12,17(24),18,20(23),21-heptaen-22-yl]benzimidazole-5-carboxamide]: the IC50 was 97 nM.

Turning to `COc1cc(C(=O)N2CCC[C@@H](N)[C@H]2C)cc2nc(-c3cc4ccc5nc4n3CC(F)(F)CCC[C@]3(F)C[C@H]3C(=O)N[C@@H]5C)n(C)c12` [Example 703, (2~{R},5~{S},7~{S})-14-[5-[(2~{R},3~{R})-3-amino-2-methyl-piperidine-1-carbonyl]-7-methoxy-1-methyl-benzimidazol-2-yl]-7,11,11-trifluoro-2-methyl-3,13,19-triazatetracyclo[11.5.2.0^ {5,7}.0^{16,20}]icosa-1(19), 14,16(20),17-tetraen-4-one], the IC50 worked out at 11 nM. For the compound `C[C@H]1NC(=O)[C@@H]2C[C@@]2(F)CCCCCn2c(-c3nc4cc(C(=O)N5C[C@H](N)[C@@H]6CC[C@H]5C6)cc(F)c4n3C)cc3ccc1nc32` [Example 717, (2~{R},5~{S},7~{S})-14-[5-[(1~{S},4~{R},5~{R})-4-amino-2-azabicyclo[3.2.1]octane-2-carbonyl]-7-fluoro-1-methyl-benzimidazol-2-yl]-7-fluoro-2-methyl-3,13,19-triazatetracyclo [11.5.2.0^{5,7}.0^{16,20}] icosa-1(19),14,16(20), 17-tetraen-4-one], the IC50 turned out to be 11 nM. To `COc1cc(C(=O)N2[C@H]3CC[C@@H]2[C@H](N)C3)cc2nc(-c3cc4ccc5nc4n3C[C@H]3C[C@@H]3CCCCC(=O)N[C@@H]5C)n(C)c12` [Example 226, (3~{S},5~{S},12~{R})-18-[5-[(1~{R},2~{R},4~{S})-2-amino-7-azabicyclo[2.2.1]heptane-7-carbonyl]-7-methoxy-1-methyl-benzimidazol-2-yl]-12-methyl-1,11,20-triazatetracyclo[11.5.2.0^{3,5}.0^{16,19}] icosa-13(20),14,16(19),17-tetraen-10-one] belongs 24 nM; to `C[C@H]1NC(=O)c2ccc(Cl)nc2CC[C@H]2C[C@H]2Cn2c(-c3nc4cc(C(=O)N5C[C@H](N)[C@@H]6CC[C@H]5C6)cc(F)c4n3C3CC3)cc3ccc1nc32` [Example 710, (3~{R),5~{S},16~{R})-22-[5-[(1~{S},4~{R},5~{R})-4-amino-2-azabicyclo[3.2.1]octane-2-carbonyl]-1-cyclopropyl-7-fluoro-benzimidazol-2-yl]-10-chloro-16-methyl-1,9,15,24-tetrazapentacyclo[15.5.2.0^ {3,5}.0^{8,13}.0^{20,23}] tetracosa-8(13),9,11,17(24), 18,20(23),21-heptaen-14-one], 18 nM. On to `C[C@H]1NC(=O)C2(CCCCCCn3c(-c4nc5cc(C(=O)N[C@H]6CNCC[C@@H]6F)c(F)cc5n4C)cc4ccc1nc43)CC(F)(F)C2` [Example 402, 2-[(11~{R})-1′,1′-difluoro-11-methyl-9-oxo-spiro[1,10,19-triazatricyclo[10.5.2.0^{15,18}]nonadeca-12(19),13,15(18),16-tetraene-8,3′-cyclobutane]-17-yl]-6-fluoro-~{N}-[(3~{S},4~{S})-4-fluoro-3-piperidyl]-1-methyl-benzimidazole-5-carboxamide], for which the IC50 came out at 91 nM.

In the case of `COc1cc(C(=O)N2CC[C@@H](OC)[C@@H](N)C2)cc2nc(-c3cc4ccc5nc4n3C[C@H]3C[C@H]3COCCC(=O)N[C@@H]5C)n(C)c12` [Example 314, (3~{S),5~{R},12~{R})-18-[5-[(3~{S},4~{R})-3-amino-4-methoxy-piperidine-1-carbonyl]-7-methoxy-1-methyl-benzimidazol-2-yl]-12-methyl-7-oxa-1,11,20-triazatetracyclo[11.5.2.0^{3,5}.0^{16,19}] icosa-13(20),14,16(19),17-tetraen-10-one], the IC50 turned out to be 156 nM.

On to `COc1cc(C(=O)N[C@H]2CNCC[C@@H]2F)cc2nc(-c3cc4ccc5nc4n3CCCCC[C@@H]3C[C@@H]3C(=O)N[C@@H]5C)n(C)c12` [Example 523, ~{N}-[(3~{S},4~ {S})-4-fluoro-3-piperidyl]-7-methoxy-1-methyl-2-[(2~{R},5~ {S},7~{R})-2-methyl-4-oxo-3,13,19-triazatetracyclo [11.5.2.0^{5,7}.0^{16,20}]icosa-1(19),14,16(20), 17-tetraen-14-yl] benzimidazole-5-carboxamide], for which the IC50 turned out to be 205 nM. Then `C[C@H]1NC(=O)c2ccc(Cl)nc2CCCCCn2c(-c3nc4cc(C(=O)N5CC[C@H]6CC[C@@H]5[C@@H]6N)cc(F)c4n3C3CC3)cc3ccc1nc32` [Example 774, (2~{R})-17-[5-[(1~{R},5~{R}, 8~{R})-8-amino-2-azabicyclo [3.2.1]octane-2-carbonyl]-1-cyclopropyl-7-fluoro-benzimidazol-2-yl]-8-chloro-2-methyl-3,9,16,22-tetrazatetracyclo[14.5.2.0^ {5,10).0^{19,23}]tricosa-1(22),5(10),6,8,17,19(23),20-heptaen-4-one], with 33 nM. For the compound `COc1cc(C(=O)N2CC[C@H]3CCCN[C@H]3C2)cc2nc(-c3cc4ccc5nc4n3CCCCCCC(C)(C)C(=O)N[C@@H]5C)n(C)c12` (single isomer, unassigned) [Example 261, (11˜{R})-17-[5-[(4˜{a}˜{R},8˜{a}˜{R})-2,3,4,4˜{a},5,6,8,8˜{a}-octahydro-1˜{H}-1,7-naphthyridine-7-carbonyl]-7-methoxy-1-methyl-benzimidazol-2-yl]-8,8,11-trimethyl-1,10,19-triazatricyclo[10.5.2.0^{15,18}]nonadeca-12(19),13,15(18),16-tetraen-9-one], the IC50 is 106 nM. Then `C[C@H]1NC(=O)C(C)(C)CCCCCn2c(-c3nc4cc(C(=O)N5C[C@H](N)[C@@H]6CC[C@H]5C6)cc(F)c4n3C3CC3)cc3ccc1nc32` [Example 684, (10~{R})-16-[5-[(1~{S}, 4~{R},5~{R})-4-amino-2-azabicyclo [3.2.1]octane-2-carbonyl]-1-cyclopropyl-7-fluoro-benzimidazol-2-yl]-7,7,10-trimethyl-1,9,18-triazatricyclo[9.5.2.0^ {14,17}]octadeca-11(18), 12,14(17),15-tetraen-8-one], with 20 nM; and `COc1cc(C(=O)NC2CNCC[C@@H]2F)cc2nc(-c3cc4ccc5nc4n3C[C@H]3C[C@H]3CCC[C@@](C)(C(F)(F)F)C(=O)N[C@@H]5C)n(C)c12` (some centres unmarked) [Example 373, 2-[(3~{S},5~{R},9~{R},12~{R})-9,12-dimethyl-10-oxo-9-(trifluoromethyl)-1,11,20-triazatetracyclo[11.5.2.0^{3,5}.0^{16,19}]icosa-13(20),14,16(19),17-tetraen-18-yl]-~{N}-[(3~{S},4~{S})-4-fluoro-3-piperidyl]-7-methoxy-1-methyl-benzimidazole-5-carboxamide], with 254 nM. Turning to `COc1cc(C(=O)N2[C@H]3CC[C@@H]2[C@H](N)C3)cc2nc(-c3cc4ccc5nc4n3CCCCCC(C)(C)C(=O)N[C@@H]5C)c(C)n12` [Example 126, (10~{R})-16-[7-[(1~{R},2~{R},4~{S})-2-amino-7-azabicyclo[2.2.1]heptane-7-carbonyl]-5-methoxy-3-methyl-imidazo[1,2-a]pyridin-2-yl]-7,7,10-trimethyl-1,9,18-triazatricyclo[9.5.2.0^{14,17}]octadeca-11(18),12,14(17),15-tetraen-8-one], the IC50 amounted to 25 nM.
